Test results from patent US6358921B1, “Antimicrobial peptide compositions and method” (priority 1996, dated 2002).

What was measured:
S. aureus K147 = format: cell-based, Staphylococcus aureus
Source text: (§1) The following bacterial strains were utilized: Escherichia coli UB1005 (wt) and its antibiotic supersusceptible derivative DC2 (Clark, 1984); Excherichia coli SC9251 and its polymixin B rasistant mutant pmrA SC9252 (Peterson, et al., 1987) Pseudomonas aeruginosa H187 (wt) (Angus, et al., 1987) and its antibiotic-sensitive derivative H188 (Zimmerman, W, Antimicrob. Agents Chemother. 18: 94-100, 1980); methicillin sensitive Staphylococcus aureus K147 (Kreiswirth, et al., 1983); Staphylococcus aureus SAP0017, a methicillin resistant clinical isolate from Dr. A. Chow (University of British Columia); Bacillus subtilis, an environmental wt lab strain. Enterococcus faecalis are ATCC 29212 cells and Staphylococcus epidermidis was a clinical isolate from Dr. D. Speert (University of British Columbia). Antifungal activity was tested using a clinical lab isolate of Candida albicans. Salmonella typhinurium C57 and C610 (Fields, P.I., et al., Science 243: 1059-1062 (1989) Corynebacterium xerosis was an environmental isolate (University of British Columbia).
(§2) It is now apparent that agar-based assays severely underestimate antifungal activity as well as activity against gram negative microorganisms (Kondejewski, et al., 1996). Consequently, in the studies reported herein, a liquid-broth method was used to measure the antibiotic properties of the peptides. […] Briefly, cells were grown overnight at 37° C. in LB and diluted in the same medium. Serial dilutions of antibiotics were added to the microtitre plates in a volume of 100 μL followed by 10 μL of bacteria to give a final inoculum of 5×10^5 CFU/mL. Plates were incubated at 37° C. overnight and MICs determined as the lowest antibiotic concentration that inhibited growth.
(§3) The results from antimicrobial and hemolytic assays are combined to provide a “Therapeutic Index” (TI) for each peptide with respect to individual microorganisms. As reported herein, the TI is calculated as the hemolytic activity divided by the antimicrobial activity. The TI thus is a measure of specificity of the particular peptide for microbial membranes as opposed to human blood cell membranes. In the present studies, antimicrobial activities are reported as minimum inhibitory concentrations (MIC)—the lowest concentration of peptide (μg/ml) found to inhibit growth of the particular microbe. Hemolytic activity is reported as the concentration of peptide that effected complete lysis of blood cells after four hours. Thus, in the context of the present invention high TI values indicate microbial specificity and relative lack of toxicity.

S. aureus SAP0017 = format: cell-based, Staphylococcus aureus
Source text: as §1, §2, §3

B. subtilis = format: cell-based, Bacillus subtilis
Source text: as §1
as §2, with “growth. […]” for “growth.”

P. aeruginosa H187 = format: cell-based, Pseudomonas aeruginosa; conditions: H187
Source text: as §1, §2, §3

S. typhinurium C587 = format: cell-based, Salmonella typhinurium
Source text: as §1
as §2, with “growth. […]” for “growth.”

S. typhinurium C610 = format: cell-based, Salmonella typhinurium
Source text: as §1
as §2, with “growth. […]” for “growth.”

C. Albicans = format: cell-based, Candida albicans
Source text: as §1
as §2, with “growth. […]” for “growth.”

E. coli DC2 = format: cell-based, Escherichia coli; conditions: DC2
Source text: as §1, §2, §3

E. coli UB1005 = format: cell-based, Escherichia coli; conditions: UB1005
Source text: as §1
as §2, with “growth. […]” for “growth.”

E. faecalis = format: cell-based, Enterococcus faecalis
Source text: as §1
as §2, with “growth. […]” for “growth.”

S. epidermidis = format: cell-based, Staphylococcus epidermidis
Source text: as §1
as §2, with “growth. […]” for “growth.”

[1] = Displacement of dansyl-polymyxin from LPS; format: binding, P. aeruginosa; conditions: read-out: LPS binding affinity: peptide concentration to displace 50% of dansyl-polymyxin B from LPS; Tables 1, 4, 7
Source text: In order to determine whether ring size affects the interaction between the peptide and bacterial membranes, we studied the interaction between the GS ring analogs and bacterial lipopolysaccharide (LPS). It has been shown previously that dansyl-polymixin (DPX) is a good probe for cationic binding sites on both purified LPS as well as whole bacterial cells (Example 8; Moore, et al., 1986; Sawyer, et al., 1988; Hancock, 1981). […] The LPS binding activity of various GS analogs was investigated, as discussed above.
Dansyl-polymixin (DPX) displacement from P. aeruginosa LPS was measured as described (Moore, et al., 1986). Briefly, peptides were titrated into cuvettes containing 3 μg of LPS per mL and 2.5 μM dansyl-polymixin (approximately 90% saturation of LPS binding sites) in 1 mL of 5 mM sodium HEPES buffer, pH 7.0, and the decrease in fluorescence recorded. A plot of the inverse of the percent inhibition as a function of the inverse of inhibitor concentration gave a value for I50, the inhibitor concentration resulting in 50% displacement of dansyl-polymixin from LPS (−1/× intercept).

C. xeroses = format: cell-based, Corynebacterium xerosis
Source text: as §1
as §2, with “growth. […]” for “growth.”

P. aeruginosa H188 = format: cell-based, Pseudomonas aeruginosa; conditions: H188
Source text: as §1
as §2, with “growth. […]” for “growth.”

SMILES | Minimum Inhibitory Concentration (activity) (S. aureus K147) [µg/mL] | Minimum Inhibitory Concentration (activity) (S. aureus SAP0017) [µg/mL] | Minimum Inhibitory Concentration (activity) (B. subtilis) [µg/mL] | Minimum Inhibitory Concentration (activity) (P. aeruginosa H187) [µg/mL] | Minimum Inhibitory Concentration (activity) (S. typhinurium C587) [µg/mL] | Minimum Inhibitory Concentration (activity) (S. typhinurium C610) [µg/mL] | Minimum Inhibitory Concentration (activity) (C. Albicans) [µg/mL] | Minimum Inhibitory Concentration (activity) (E. coli DC2) [µg/mL] | Minimum Inhibitory Concentration (activity) (E. coli UB1005) [µg/mL] | Minimum Inhibitory Concentration (activity) (E. faecalis) [µg/mL] | Minimum Inhibitory Concentration (activity) (S. epidermidis) [µg/mL] | IC50 [1] [µM] | Minimum Inhibitory Concentration (activity) (C. xeroses) [µg/mL] | Minimum Inhibitory Concentration (activity) (P. aeruginosa H188) [µg/mL]
CC(C)C[C@@H]1NC(=O)[C@H](CCCCN)NC(=O)[C@H](C(C)C)NC(=O)[C@H](CCCCN)NC(=O)[C@H](CC(C)C)NC(=O)[C@@H]2CCCN2C(=O)[C@@H](Cc2ccc(O)cc2)NC(=O)[C@H](C(C)C)NC(=O)[C@@H](CCCCN)NC(=O)[C@H](CC(C)C)NC(=O)[C@@H](CCCCN)NC(=O)[C@H](C(C)C)NC(=O)[C@@H]2CCCN2C(=O)[C@@H](Cc2ccc(O)cc2)NC1=O [GS14K2K4] | >200 | >200 | >200 | 150 | 200 | 25 | 200 | 6.2 | 50 | >200 | 100 | 120 | 9 | 
CC(C)C[C@@H]1NC(=O)[C@H](CCCCN)NC(=O)[C@H](C(C)C)NC(=O)[C@@H]2CCCN2C(=O)[C@@H](Cc2ccc(O)cc2)NC(=O)[C@@H](CC(C)C)NC(=O)[C@H](CCCCN)NC(=O)[C@H](C(C)C)NC(=O)[C@H](CCCCN)NC(=O)[C@H](CC(C)C)NC(=O)[C@@H]2CCCN2C(=O)[C@@H](Cc2ccc(O)cc2)NC(=O)[C@H](C(C)C)NC(=O)[C@H](CCCCN)NC1=O [GS14L12] | 100 | 50 | 200 | 200 | 150 | 50 | 9 | 3.1 | 17 | 0.8 | 3.1 | 32 | 3.1 | 
CC(C)C[C@@H]1NC(=O)[C@H](CCCCN)NC(=O)[C@H](C(C)C)NC(=O)[C@@H]2CCCN2C(=O)[C@@H](Cc2ccc(O)cc2)NC(=O)[C@H](CC(C)C)NC(=O)[C@H](CCCCN)NC(=O)[C@H](C(C)C)NC(=O)[C@H](CCCCN)NC(=O)[C@H](CC(C)C)NC(=O)[C@@H]2CCCN2C(=O)[C@@H](Cc2ccc(O)cc2)NC(=O)[C@@H](C(C)C)NC(=O)[C@H](CCCCN)NC1=O [GS14V5] | 100 | 50 | 200 | 100 | 100 |  | 6.2 | 3.1 | 15 | 1.5 | 3.1 | 33 |  | 62
CC(C)C[C@@H]1NC(=O)[C@H](CCCCN)NC(=O)[C@H](C(C)C)NC(=O)[C@@H]2CCCN2C(=O)[C@@H](Cc2ccc(O)cc2)NC(=O)[C@H](CC(C)C)NC(=O)[C@H](CCCCN)NC(=O)[C@H](C(C)C)NC(=O)[C@@H](CCCCN)NC(=O)[C@H](CC(C)C)NC(=O)[C@@H]2CCCN2C(=O)[C@@H](Cc2ccc(O)cc2)NC(=O)[C@H](C(C)C)NC(=O)[C@H](CCCCN)NC1=O [GS14K9] | 50 | 25 | 25 | 50 | 17 | 6.2 | 6.2 | 3.1 |  | 1.5 | 6.2 | 60 | 1.5 | 62
CC(C)C[C@@H]1NC(=O)[C@H](CCCCN)NC(=O)[C@H](C(C)C)NC(=O)[C@@H]2CCCN2C(=O)[C@@H](Cc2ccc(O)cc2)NC(=O)[C@H](CC(C)C)NC(=O)[C@H](CCCCN)NC(=O)[C@H](C(C)C)NC(=O)[C@H](CCCCN)NC(=O)[C@H](CC(C)C)NC(=O)[C@@H]2CCCN2C(=O)[C@H](Cc2ccc(O)cc2)NC(=O)[C@H](C(C)C)NC(=O)[C@H](CCCCN)NC1=O [GS14Y6] | >200 | >200 | >200 | 200 | >200 | 100 |  | 3.1 | 50 | 3.1 | 6.2 | 20 | 1 | 50
CC(C)C[C@@H]1NC(=O)[C@@H](CCCCN)NC(=O)[C@H](C(C)C)NC(=O)[C@@H](CCCCN)NC(=O)[C@H](CC(C)C)NC(=O)[C@@H]2CCCN2C(=O)[C@@H](Cc2ccc(O)cc2)NC(=O)[C@H](C(C)C)NC(=O)[C@@H](CCCCN)NC(=O)[C@H](CC(C)C)NC(=O)[C@@H](CCCCN)NC(=O)[C@H](C(C)C)NC(=O)[C@@H]2CCCN2C(=O)[C@@H](Cc2ccc(O)cc2)NC1=O [GS14K2K4K9K11] | >200 | >200 | >200 | >200 | >200 | 25 | >200 | 50 | 100 | >200 | >200 | 200 | 25 | 
